Measurements from article PMC10714399, “Open Source Antibiotics: Simple Diarylimidazoles Are Potent against Methicillin-Resistant Staphylococcus aureus” (ACS Infectious Diseases, 2023).
In brackets after ≈: the same amount, converted by molar mass. Like-named read-outs stand apart in the source and are kept apart here.

Legend:
[1] = tested on: Staphylococcus aureus NCTC 13373 (mecA-positive; methicillin-resistant); assay: In vitro antibacterial activity, MIC (UCL School of Pharmacy assay), MRSA; type: cell-based; details: for MIC: Staphylococcus aureus
Description: (§1) Staphylococcus aureus NCTC 13373 (mecA-positive; methicillin-resistant, NCTC 13373) was supplied by the National Collection of Type Cultures (NCTC), Public Health England, United Kingdom. Other organisms, S. aureus ATCC 25923 (methicillin-susceptible) and Enterococcus faecalis ATCC 51299 (vanA-positive; vancomycin-resistant), were obtained from the American Type Culture Collection (ATCC) via LGC Standards, UK. A suspension of each organism was prepared from an overnight plate culture (tryptone soya agar) in phosphate-buffered saline (PBS) and adjusted to an absorbance reading at 600 nm of 0.1, which is approximately equivalent to 1 × 10^8 colony-forming units (CFU) per mL. The cultures were further diluted 1:100 in isosensitest broth (Oxoid, United Kingdom) before 100 μL was used to inoculate each well of a 96-well plate that contained diluted samples of the OSA series. Compounds were evaluated over a 2-fold dilution range from 32 to 0.03 μg/mL. Stocks of the samples were prepared in 100% DMSO at […] before being diluted in isosenstitest broth. The highest concentration of DMSO present was 2%, which has been previously shown not to inhibit the growth of the microorganisms (data not shown). […] Vancomycin was used as a quality control compound.

[2] = tested on: S. aureus ATCC 25923 (methicillin-susceptible); assay: In vitro antibacterial activity, MIC (UCL), MSSA; type: cell-based, Staphylococcus aureus; details: for MIC: Staphylococcus aureus
Description: as §1

[3] = UCL assay, read-out: MRSA MIC (ug/mL) (UCL)
[4] = UCL assay, read-out: MSSA MIC (ug/mL) (UCL)

c1ccc(-c2nc3n(c2-c2csc4ccccc24)CCC3)nc1 [OSA_000832]
MIC ([1]; UCL, read-out: MRSA MIC (UCL)): 8 µg/mL (≈ 25.2 µM)

c1ccc(-c2nc3n(c2-c2ccc4cccnc4c2)CCC3)nc1 [OSA_000833]
MIC ([1]; UCL, read-out: MRSA MIC (UCL)): > 32 µg/mL

c1ccc(-c2nc3n(c2-c2ccc4sccc4c2)CCC3)cc1 [OSA_000834]
MIC ([1]; UCL, read-out: MRSA MIC (UCL)): > 32 µg/mL

c1ccc(-c2nc3n(c2-c2ccc4scnc4c2)CCC3)nc1 [OSA_000835]
MIC ([1]; UCL, read-out: MRSA MIC (UCL)): 32 µg/mL (≈ 101 µM)

Fc1ccc(Nc2c(-c3nccs3)nc3ccccn23)cc1 [OSA_001008]
MIC ([2]; read-out: MSSA MIC (UCL)): > 32 µg/mL | MIC ([1]; UCL, read-out: MRSA MIC (UCL)): > 32 µg/mL

Fc1ccc(Nc2c(-c3ccc[nH]3)nc3ccccn23)cc1 [OSA_001009]
MIC ([2]; read-out: MSSA MIC (UCL)): > 32 µg/mL | MIC ([1]; UCL, read-out: MRSA MIC (UCL)): > 32 µg/mL

CC(C)CN(c1ccc(F)cc1)c1c(-c2nccs2)nc2ccccn12 [OSA_001010]
MIC ([2]; read-out: MSSA MIC (UCL)): > 32 µg/mL | MIC ([1]; UCL, read-out: MRSA MIC (UCL)): > 32 µg/mL

CN1CCN(c2ccc(-c3c(-c4ccccn4)nc4ccccn34)cc2)CC1 [OSA_001012]
MIC ([2]; read-out: MSSA MIC (UCL)): > 32 µg/mL | MIC ([1]; UCL, read-out: MRSA MIC (UCL)): > 32 µg/mL

Cc1ccc(-c2c(-c3ccccn3)nc3cc(C#N)ccn23)cc1 [OSA_001013]
MIC ([2]; read-out: MSSA MIC (UCL)): > 32 µg/mL | MIC ([1]; UCL, read-out: MRSA MIC (UCL)): > 32 µg/mL

Cc1ccc(-c2c(-c3ccccn3)nc3cc(N4CCNCC4)ccn23)cc1 [OSA_001014]
MIC ([2]; read-out: MSSA MIC (UCL)): > 32 µg/mL | MIC ([1]; UCL, read-out: MRSA MIC (UCL)): > 32 µg/mL

Cc1ccc(-c2c(-c3ccccn3)nc3cc(C(N)=O)ccn23)cc1 [OSA_001015]
MIC ([2]; read-out: MSSA MIC (UCL)): > 32 µg/mL | MIC ([1]; UCL, read-out: MRSA MIC (UCL)): > 32 µg/mL

N#Cc1ccc(C(=O)Nc2c(-c3ccccn3)nc3ccccn23)cc1 [OSA_001016]
MIC ([2]; read-out: MSSA MIC (UCL)): > 32 µg/mL | MIC ([1]; UCL, read-out: MRSA MIC (UCL)): > 32 µg/mL

Cc1ccc(C(=O)Nc2c(-c3ccccn3)nc3ccccn23)cc1 [OSA_001017]
MIC ([2]; read-out: MSSA MIC (UCL)): > 32 µg/mL | MIC ([1]; UCL, read-out: MRSA MIC (UCL)): > 32 µg/mL

COc1ccc(-c2nc3ccccn3c2N(CC(C)C)c2ccc(F)cc2)nc1 [OSA_001034]
MIC [1, 3]: 8 µg/mL (≈ 20.5 µM)

CC(C)CN(c1ccc(F)cc1)c1c(-c2ccccn2)nc2cnccn12 [OSA_001035]
MIC [2, 4]: > 32 µg/mL | MIC [1, 3]: > 32 µg/mL

CC(C)CN(c1ccc(F)cc1)c1c(-c2ccccn2)nc2cccnn12 [OSA_001036]
MIC [2, 4]: 32 µg/mL (≈ 88.5 µM) | MIC [1, 3]: 32 µg/mL (≈ 88.5 µM)

CC(C)CN(c1ccc(F)cc1)c1c(-c2ccccn2)nc2ccc(S(C)(=O)=O)cn12 [OSA_001037]
MIC [2, 4]: > 32 µg/mL | MIC [1, 3]: > 32 µg/mL

CC(C)CN(c1ccc(F)cc1)c1c(-c2ccccn2)nc2ncccn12 [OSA_001038]
MIC [2, 4]: 8 µg/mL (≈ 22.1 µM)

CC(C)CN(c1ccc(F)cc1)c1c(-c2ccccn2)nc2ccncn12 [OSA_001039]
MIC [2, 4]: > 32 µg/mL | MIC [1, 3]: > 32 µg/mL

CC(C)CN(Cc1c(-c2ccccn2)nc2ccccn12)c1ccc(F)cc1 [OSA_001040]
MIC [2, 4]: > 32 µg/mL | MIC [1, 3]: 32 µg/mL (≈ 85.5 µM)

N#Cc1ccc(-c2nc(-c3ccccn3)c[nH]2)cc1 [OSA_001102]
MIC [2, 4]: > 32 µg/mL | MIC [1, 3]: > 32 µg/mL

N#Cc1ccc(-c2c(-c3ccccn3)nc3cccnn23)cc1 [OSA_001103]
MIC [2, 4]: > 32 µg/mL | MIC [1, 3]: > 32 µg/mL

N#Cc1ccc(-c2c(-c3ccccn3)nc3ccccn23)cc1 [OSA_001104]
MIC [2, 4]: > 32 µg/mL | MIC [1, 3]: > 32 µg/mL

N#Cc1ccc(-c2c(-c3ccccn3)nc3ncccn23)cc1 [OSA_001105]
MIC [2, 4]: > 32 µg/mL | MIC [1, 3]: > 32 µg/mL

N#Cc1ccc(-c2c(-c3ccccn3)nc3cnccn23)cc1 [OSA_001106]
MIC [2, 4]: > 32 µg/mL | MIC [1, 3]: > 32 µg/mL

N#Cc1ccc(-c2c(-c3ncccn3)nc3ccccn23)cc1 [OSA_001107]
MIC [2, 4]: > 32 µg/mL | MIC [1, 3]: > 32 µg/mL

c1ccc(-c2nc3n(c2-c2ccc4c(c2)OCO4)CCS3)nc1 [compound 813]
MRSA MIC [1]: 32 µg/mL

c1ccc(-c2nc3ccccn3c2-c2ccc3c(c2)OCO3)nc1 [compound 814]
MIC ([1]; read-out: MRSA MIC): 32 µg/mL (≈ 101 µM)

c1ccc(-c2nc3ncccn3c2-c2ccc3c(c2)OCO3)nc1 [compound 815]
MRSA MIC [1]: > 32 µg/mL

c1cncc(-c2nc3n(c2-c2ccc4c(c2)OCO4)CCC3)c1 [compound 816]
MRSA MIC [1]: > 32 µg/mL

c1cc(-c2nc3n(c2-c2ccc4c(c2)OCO4)CCC3)ccn1 [compound 817]
MRSA MIC [1]: > 32 µg/mL

c1ccc(-c2nc3n(c2-c2ccc4c(c2)OCO4)CCCC3)nc1 [compound 818]
MRSA MIC [1]: 16 µg/mL

c1ccc(-c2nc3n(c2-c2ccc4c(c2)OCCO4)CCC3)nc1 [compound 819]
MIC ([1]; read-out: MRSA MIC): 16 µg/mL (≈ 50.1 µM)

COc1ccc(-c2c(-c3ccccn3)nc3n2CCC3)cc1OC [compound 820]
MIC ([2]; read-out: MSSA MIC): > 32 µg/mL | MRSA MIC [1]: 32 µg/mL | MIC ([1]; 16 h, read-out: MRSA MIC): > 32 µg/mL | MIC ([1]; read-out: MRSA MIC): > 32 µg/mL

COc1ccc(-c2c(-c3ccccn3)nc3n2CCC3)cc1 [compound 823]
MIC ([1]; read-out: MRSA MIC): 16 µg/mL (≈ 54.9 µM)

CSc1ccc(-c2c(-c3ccccn3)nc3n2CCC3)cc1 [compound 824]
MIC ([1]; read-out: MRSA MIC): 4 µg/mL (≈ 13 µM)

COc1cccc(-c2c(-c3ccccn3)nc3n2CCC3)c1 [compound 825]
MIC ([1]; read-out: MRSA MIC): 16 µg/mL (≈ 54.9 µM)

CSc1cccc(-c2c(-c3ccccn3)nc3n2CCC3)c1 [compound 826]
MIC ([1]; read-out: MRSA MIC): 4 µg/mL (≈ 13 µM)

c1ccc(-c2nc3n(c2-c2ccc4c(c2)CCO4)CCC3)nc1 [compound 827]
activity against MRSA, in words [1]: ineffective | MIC ([1]; read-out: MRSA MIC): 32 µg/mL (≈ 105 µM)

c1ccc(-c2nc3n(c2-c2ccc4c(c2)OCC4)CCC3)nc1 [compound 828]
activity against MRSA, in words [1]: ineffective | MIC ([1]; read-out: MRSA MIC): 32 µg/mL (≈ 105 µM)

c1ccc(-c2nc3n(c2-c2ccc4ccoc4c2)CCC3)nc1 [compound 829]
MIC ([1]; read-out: MRSA MIC): 4 µg/mL (≈ 13.3 µM)

c1ccc(-c2nc3n(c2-c2ccc4ccsc4c2)CCC3)nc1 [compound 830]
MIC ([1]; read-out: MRSA MIC): 4 µg/mL (≈ 12.6 µM)

c1ccc(-c2nc3n(c2-c2ccc4sc5ccccc5c4c2)CCC3)nc1 [compound 831]
MIC ([1]; read-out: MRSA MIC): 8 µg/mL (≈ 21.8 µM)

c1ccc(-c2nc3n(c2-c2csc4ccccc24)CCC3)nc1 [compound 832]
MIC ([1]; read-out: MRSA MIC): 8 µg/mL (≈ 25.2 µM)

c1ccc(-c2nc3n(c2-c2ccc4cccnc4c2)CCC3)nc1 [compound 833]
activity against MRSA, in words [1]: ineffective | MIC ([1]; read-out: MRSA MIC): > 32 µg/mL

c1ccc(-c2nc3n(c2-c2ccc4sccc4c2)CCC3)cc1 [compound 834]
MRSA MIC [1]: > 32 µg/mL

c1ccc(-c2nc3n(c2-c2ccc4scnc4c2)CCC3)nc1 [compound 835]
activity against MRSA, in words [1]: ineffective | MIC ([1]; read-out: MRSA MIC): 32 µg/mL (≈ 101 µM)

Cc1nc2cc(-c3c(-c4ccccn4)nc4n3CCC4)ccc2s1 [compound 836]
activity against MRSA, in words [1]: ineffective | MIC ([1]; read-out: MRSA MIC): 32 µg/mL (≈ 96.3 µM)

COc1cccn2c(N(C)c3ccc(F)cc3)c(-c3ccccn3)nc12 [compound 1001]
MIC ([2]; 16 h, read-out: MSSA MIC): 16 µg/mL (≈ 45.9 µM) | MIC ([1]; 16 h, read-out: MRSA MIC): 16 µg/mL (≈ 45.9 µM)

[2H]C([2H])([2H])N(c1ccc(F)cc1)c1c(-c2ccccn2)nc2ccccn12 [compound 1002]
MIC ([2]; read-out: MSSA MIC): 16 µg/mL (≈ 49.8 µM) | MIC ([1]; read-out: MRSA MIC): 16 µg/mL (≈ 49.8 µM)

CN(c1ccc(F)cc1)c1c(-c2ccccn2)nc2ccc(Br)cn12 [compound 1003]
MIC ([2]; read-out: MSSA MIC): 16 µg/mL (≈ 40.3 µM) | MIC ([1]; read-out: MRSA MIC): 16 µg/mL (≈ 40.3 µM)

CSc1ccc2nc(-c3ccccn3)c(N(C)c3ccc(F)cc3)n2c1 [compound 1004]
MIC ([2]; read-out: MSSA MIC): 8 µg/mL (≈ 22 µM) | MIC ([1]; read-out: MRSA MIC): 8 µg/mL (≈ 22 µM)

CN(c1ccc(F)cc1)c1c(-c2ccccn2)nc2cccc(F)n12 [compound 1005]
MIC ([2]; read-out: MSSA MIC): 32 µg/mL (≈ 95.1 µM) | MIC ([1]; read-out: MRSA MIC): 32 µg/mL (≈ 95.1 µM)

CN(c1ccc(F)cc1)c1c(-c2ccccn2)nc2c(F)cccn12 [compound 1006]
MIC ([2]; 16 h, read-out: MSSA MIC): > 32 µg/mL | MIC ([1]; 16 h, read-out: MRSA MIC): > 32 µg/mL

COc1ccnc(-c2nc3ccccn3c2N(C)c2ccc(F)cc2)c1 [compound 1007]
MSSA MIC [2]: 8 µg/mL | MRSA MIC [1]: 8 µg/mL

Fc1ccc(Nc2c(-c3nccs3)nc3ccccn23)cc1 [compound 1008]
MIC ([2]; read-out: MSSA MIC): > 32 µg/mL | MIC ([1]; read-out: MRSA MIC): > 32 µg/mL

Fc1ccc(Nc2c(-c3ccc[nH]3)nc3ccccn23)cc1 [compound 1009]
MIC ([2]; read-out: MSSA MIC): > 32 µg/mL | MIC ([1]; read-out: MRSA MIC): > 32 µg/mL

CC(C)CN(c1ccc(F)cc1)c1c(-c2nccs2)nc2ccccn12 [compound 1010]
MSSA MIC [2]: > 32 µg/mL | MRSA MIC [1]: > 32 µg/mL

CCN(CC)c1ccc(-c2c(-c3ccccn3)nc3ccccn23)cc1 [compound 1011]
MIC ([2]; read-out: MSSA MIC): 4 µg/mL (≈ 11.7 µM) | MIC ([1]; read-out: MRSA MIC): 4 µg/mL (≈ 11.7 µM)

COc1ccc(-c2nc3ccccn3c2N(CC(C)C)c2ccc(F)cc2)nc1 [compound 1034]
MRSA MIC [1]: 8 µg/mL
